Assay results published in PubChem BioAssay AID256 (DTP/NCI, 2004).
Inconclusive results and toxic doses are left out. Rule for the calls: active = survival T/C of 150% or more; inactive = T/C below 125% in these data.

Test system: CD2F1 mice, L1210 leukemia ip, survival T/C
Assay: NCI In Vivo Anticancer Drug Screen. Data for tumor model L1210 Leukemia (intraperitoneal) in CD2F1 (CDF1) mice
Conditions: higher = longer survival
Summary of the method: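 In this screen, transplantable tumors were grown in mice given either the compound or its vehicle. Results were expressed as the treated measurement relative to the control measurement.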

[1] = endpoint: mean survival time, dose: 100.0 mg/kg/injection, schedule: Q01DX009 (ip), vehicle: saline with Tween-80
[2] = endpoint: mean survival time, dose: 200.0 mg/kg/injection, schedule: Q01DX009 (ip), vehicle: saline with Tween-80
[3] = endpoint: mean survival time, dose: 400.0 mg/kg/injection, schedule: Q01DX009 (ip), vehicle: saline with Tween-80
[4] = endpoint: mean survival time, dose: 100.0 mg/kg/injection, schedule: Q04DX003 (ip), vehicle: saline with Tween-80
[5] = endpoint: mean survival time, dose: 200.0 mg/kg/injection, schedule: Q04DX003 (ip), vehicle: saline with Tween-80
[6] = endpoint: mean survival time, dose: 100.0 mg/kg/injection, schedule: Q04DX002 (ip), vehicle: saline with Tween-80
[7] = endpoint: mean survival time, dose: 200.0 mg/kg/injection, schedule: Q04DX002 (ip), vehicle: saline with Tween-80
[8] = endpoint: mean survival time, dose: 400.0 mg/kg/injection, schedule: Q04DX002 (ip), vehicle: saline with Tween-80
[9] = endpoint: mean survival time, dose: 400.0 mg/kg/injection, schedule: Q04DX003 (ip), vehicle: saline with Tween-80

Measured: T/C

O=C1C(=O)c2ccccc2C(O)=C1C(C1=C(O)c2ccccc2C(=O)C1=O)c1ccccc1Br
inactive: endpoint: mean survival time, dose: 100.0 mg/kg/injection, schedule: Q01DX001 (ip), vehicle: saline sonified 98 % of control | [1] 86 % of control | endpoint: mean survival time, dose: 200.0 mg/kg/injection, schedule: Q01DX001 (ip), vehicle: saline sonified 102 % of control | endpoint: mean survival time, dose: 400.0 mg/kg/injection, schedule: Q01DX001 (ip), vehicle: saline sonified 91 % of control

CCOC(=O)C12CCC(C1=O)C(C)(O)CC2 (stereo not given)
inactive: endpoint: mean survival time, dose: 50.0 mg/kg/injection, schedule: Q01DX009 (ip), vehicle: acetone 92 % of control | endpoint: mean survival time, dose: 100.0 mg/kg/injection, schedule: Q01DX009 (ip), vehicle: acetone 90 % of control | endpoint: mean survival time, dose: 200.0 mg/kg/injection, schedule: Q01DX009 (ip), vehicle: acetone 94 % of control

C=C1c2cccc(O)c2C(O)=C2C(=O)[C@]3(O)C(O)=C(C(N)=O)C(=O)[C@@H](N(C)C)[C@@H]3[C@@H](O)[C@H]12
inactive: endpoint: median survival time, dose: 12.5 mg/kg/injection, schedule: Q01DX009 (ip), vehicle: Klucel (hydroxypropylcellulose) (HPC) 96 % of control | endpoint: median survival time, dose: 25.0 mg/kg/injection, schedule: Q01DX009 (ip), vehicle: Klucel (hydroxypropylcellulose) (HPC) 104 % of control | endpoint: median survival time, dose: 50.0 mg/kg/injection, schedule: Q01DX009 (ip), vehicle: Klucel (hydroxypropylcellulose) (HPC) 107 % of control | endpoint: median survival time, dose: 100.0 mg/kg/injection, schedule: Q01DX009 (ip), vehicle: Klucel (hydroxypropylcellulose) (HPC) 114 % of control

O=C1NC(=O)C(c2ccccc2)(c2ccc(O)cc2)N1 (stereo not given)
inactive: [1] 105 % of control | endpoint: mean survival time, dose: 100.0 mg/kg/injection, schedule: Q04DX003 (ip), vehicle: saline sonified 95 % of control | [2] 95 % of control | endpoint: mean survival time, dose: 200.0 mg/kg/injection, schedule: Q04DX003 (ip), vehicle: saline sonified 93 % of control | [3] 95 % of control | endpoint: mean survival time, dose: 400.0 mg/kg/injection, schedule: Q04DX003 (ip), vehicle: saline sonified 93 % of control

O=P1(N2CC2)OCCCN1CCCl (stereo not given)
inactive: endpoint: mean survival time, dose: 3.8 mg/kg/injection, schedule: Q01DX001 (ip), vehicle: distilled water + Tween-80 102 % of control | endpoint: mean survival time, dose: 7.5 mg/kg/injection, schedule: Q01DX001 (ip), vehicle: distilled water + Tween-80 106 % of control | endpoint: mean survival time, dose: 15.0 mg/kg/injection, schedule: Q01DX001 (ip), vehicle: distilled water + Tween-80 107 % of control | endpoint: mean survival time, dose: 30.0 mg/kg/injection, schedule: Q01DX001 (ip), vehicle: distilled water + Tween-80 98 % of control | endpoint: mean survival time, dose: 62.5 mg/kg/injection, schedule: Q01DX001 (ip), vehicle: saline with Tween-80 110 % of control

NC(=O)c1ncc[nH]c1=O
inactive: [4] 103 % of control | [5] 91 % of control

CCCCCCCC/C=C\CCCCCCCCNP(=O)(OCCCCCCCCCCCC)OCCCCCCCCCCCC
inactive: endpoint: mean survival time, dose: 50.0 mg/kg/injection, schedule: Q04DX002 (ip), vehicle: saline with Tween-80 93 % of control | [6] 96 % of control | [7] 89 % of control | [8] 100 % of control

CC1(C)NC(=O)NC1=O
inactive: endpoint: mean survival time, dose: 100.0 mg/kg/injection, schedule: Q01DX001 (ip), vehicle: saline 98 % of control | endpoint: mean survival time, dose: 200.0 mg/kg/injection, schedule: Q01DX001 (ip), vehicle: saline 107 % of control | endpoint: mean survival time, dose: 400.0 mg/kg/injection, schedule: Q01DX001 (ip), vehicle: saline 107 % of control

COC(=O)Nc1ccc(Cl)cc1[N+](=O)[O-]
inactive: [6] 95 % of control | [7] 95 % of control | [8] 91 % of control

C[n+]1c(-c2cc(Cl)cc(Cl)c2)c2cc(N)ccc2c2ccccc21
inactive: endpoint: mean survival time, dose: 6.25 mg/kg/injection, schedule: Q01DX009 (ip), vehicle: water 108 % of control | endpoint: mean survival time, dose: 12.5 mg/kg/injection, schedule: Q01DX009 (ip), vehicle: water 108 % of control | endpoint: mean survival time, dose: 25.0 mg/kg/injection, schedule: Q01DX009 (ip), vehicle: water 104 % of control

CN(C)S(=O)(=O)c1ccc(Cl)c([N+](=O)[O-])c1
inactive: endpoint: mean survival time, dose: 100.0 mg/kg/injection, schedule: Q04DX002 (ip), vehicle: Klucel (hydroxypropylcellulose) (HPC) 106 % of control | endpoint: mean survival time, dose: 200.0 mg/kg/injection, schedule: Q04DX002 (ip), vehicle: Klucel (hydroxypropylcellulose) (HPC) 106 % of control

COc1cc2c(cc1OC)-c1cc(C)c3cc(OC)c(OC)cc3[n+]1CC2
inactive: endpoint: mean survival time, dose: 25.0 mg/kg/injection, schedule: Q01DX009 (ip), vehicle: other 109 % of control | endpoint: mean survival time, dose: 50.0 mg/kg/injection, schedule: Q01DX009 (ip), vehicle: other 115 % of control | endpoint: mean survival time, dose: 100.0 mg/kg/injection, schedule: Q01DX009 (ip), vehicle: other 109 % of control

FC(F)(F)c1ccc2c(c1)N(CCCN1CCN(CCC3OCCCO3)CC1)c1ccccc1S2
inactive: endpoint: mean survival time, dose: 0.78 mg/kg/injection, schedule: Q01DX009 (ip), vehicle: saline 96 % of control | endpoint: mean survival time, dose: 1.56 mg/kg/injection, schedule: Q01DX009 (ip), vehicle: saline 96 % of control | endpoint: mean survival time, dose: 3.12 mg/kg/injection, schedule: Q01DX009 (ip), vehicle: saline 94 % of control | endpoint: mean survival time, dose: 6.25 mg/kg/injection, schedule: Q01DX009 (ip), vehicle: saline 96 % of control | endpoint: mean survival time, dose: 12.5 mg/kg/injection, schedule: Q01DX009 (ip), vehicle: saline 103 % of control

O=C(NCCCCOc1ccc([N+](=O)[O-])cc1Cl)NC1CCCCC1
inactive: [4] 102 % of control | [5] 94 % of control | [9] 91 % of control

CCC[CH2][Sn-]([CH2]CCC)([CH2]CCC)[O]C(=O)C(C)C
inactive: endpoint: mean survival time, dose: 375.0 micrograms/kg/injection, schedule: Q01DX009 (ip), vehicle: saline 93 % of control | endpoint: mean survival time, dose: 750.0 micrograms/kg/injection, schedule: Q01DX009 (ip), vehicle: saline 100 % of control | endpoint: mean survival time, dose: 1500.0 micrograms/kg/injection, schedule: Q01DX009 (ip), vehicle: saline 96 % of control

NCCS/C=C(\Br)C(=O)OCc1ccc(Br)cc1
inactive: [4] 96 % of control | [5] 98 % of control

COC1=CCC(OC)=C(C)C1
inactive: [4] 93 % of control

O=C(CCCN1CCC(O)(c2cccc(C(F)(F)F)c2)CC1)c1ccc(F)cc1
inactive: endpoint: mean survival time, dose: 12.5 mg/kg/injection, schedule: Q04DX003 (ip), vehicle: Klucel (hydroxypropylcellulose) (HPC) 95 % of control | endpoint: mean survival time, dose: 25.0 mg/kg/injection, schedule: Q04DX003 (ip), vehicle: Klucel (hydroxypropylcellulose) (HPC) 92 % of control | endpoint: mean survival time, dose: 50.0 mg/kg/injection, schedule: Q04DX003 (ip), vehicle: Klucel (hydroxypropylcellulose) (HPC) 98 % of control | endpoint: mean survival time, dose: 100.0 mg/kg/injection, schedule: Q04DX003 (ip), vehicle: Klucel (hydroxypropylcellulose) (HPC) 97 % of control

CCCCCCCCCCCCCCCCCCCC
inactive: endpoint: mean survival time, dose: 25.0 mg/kg/injection, schedule: Q04DX003 (ip), vehicle: other 90 % of control | endpoint: mean survival time, dose: 50.0 mg/kg/injection, schedule: Q04DX003 (ip), vehicle: other 91 % of control | endpoint: mean survival time, dose: 100.0 mg/kg/injection, schedule: Q04DX003 (ip), vehicle: other 88 % of control

N#Cc1cn(C2OC(CO)C(O)C2O)c2ncn3ncnc3c12 (stereo not given)
inactive: endpoint: mean survival time, dose: 3.13 mg/kg/injection, schedule: Q01DX005 (ip), vehicle: water 102 % of control | endpoint: mean survival time, dose: 6.25 mg/kg/injection, schedule: Q01DX005 (ip), vehicle: water 102 % of control | endpoint: mean survival time, dose: 12.5 mg/kg/injection, schedule: Q01DX005 (ip), vehicle: distilled water + Tween-80 122 % of control | endpoint: mean survival time, dose: 12.5 mg/kg/injection, schedule: Q01DX005 (ip), vehicle: water 112 % of control | endpoint: mean survival time, dose: 25.0 mg/kg/injection, schedule: Q01DX005 (ip), vehicle: distilled water + Tween-80 112 % of control | endpoint: mean survival time, dose: 25.0 mg/kg/injection, schedule: Q01DX005 (ip), vehicle: water 120 % of control | endpoint: mean survival time, dose: 50.0 mg/kg/injection, schedule: Q01DX005 (ip), vehicle: distilled water + Tween-80 116 % of control | endpoint: mean survival time, dose: 100.0 mg/kg/injection, schedule: Q01DX005 (ip), vehicle: distilled water + Tween-80 106 % of control

Cc1ccc(N2OCCN(C(=O)c3cc([N+](=O)[O-])cc([N+](=O)[O-])c3)C2c2ccccc2)cc1 (stereo not given)
inactive: [1] 91 % of control | [2] 95 % of control | [3] 91 % of control

CCOC(=O)/C=C/CP(=O)(OCC)OCC
inactive: endpoint: mean survival time, dose: 50.0 mg/kg/injection, schedule: Q01DX001 (ip), vehicle: carboxymethylcellulose (CMC) 102 % of control

CCOc1cccc(Cc2c[nH]c(=O)[nH]c2=O)c1
inactive: endpoint: mean survival time, dose: 100.0 mg/kg/injection, schedule: Q01DX001 (ip), vehicle: saline with Tween-80 90 % of control | endpoint: mean survival time, dose: 200.0 mg/kg/injection, schedule: Q01DX001 (ip), vehicle: saline with Tween-80 100 % of control | endpoint: mean survival time, dose: 400.0 mg/kg/injection, schedule: Q01DX001 (ip), vehicle: saline with Tween-80 89 % of control

CCC(=O)Nc1cccc(OS(=O)(=O)N(C)C)c1
inactive: [5] 97 % of control | [9] 94 % of control
